Assay results as given in patent US12595248B2, “PRMT5 inhibitors” (Merck Sharp & Dohme LLC, priority 2019, dated 2026).
Where two headings read alike, the source gives them in different places.

Experiments:
[1] = target: T1, PRMT5-MEP50 enzyme complex (Homo sapiens, UniProt O14744); assay: PRMT5-MEP50 Enzyme Methylation Assay (Version A); assay type: biochemical
T1 construct: Full-length (FL)-PRMT5-MEP50 enzyme complex (recombinant proteins from baculovirus-transfected Sf21 cells: FL-PRMT5; MW=73837 kDa and FL-MEP50; MW=38614); made in house; host or cells: baculovirus-transfected Sf21 cells
Description: PRMT5-MEP50 Enzyme Methylation Assay (Version A)
PRMT5-MEP50 biochemical assay is a direct measurement of the methylation activity of the enzyme complex on a short peptide substrate derived from the N-terminus of H4 histone. Methylation experiment was performed with recombinant PRMT5-MEP50 protein complex. The assessment of inhibitory effect of small molecules was measured by the effectiveness of the compounds to inhibit this reaction (EC50).
In this assay, the potency (EC50) of each compound was determined from a twenty-point (1:2 serial dilution; top compound concentration of 100000 nM) titration curve using the following outlined procedure. To each well of a white ProxiPlus 384 well-plate, 100 nL of compound (1% DMSO in final assay volume of 10 μL) was dispensed, followed by the addition of 8 μL of 1× assay buffer (50 mM Bicine pH 8.0, 1 mM DTT, 0.004% Tween20, 0.01% BSA) containing 1.25 nM of Full-length (FL)-PRMT5-MEP50 enzyme complex (recombinant proteins from baculovirus-transfected Sf21 cells: FL-PRMT5; MW=[…] and FL-MEP50; MW=38614) and 1 μL of 150 μM S-(5′-Adenosyl)-L-Methionine Chloride (SAM). A plate was sealed and placed in a 37° C. humidified chamber for a 60 minutes pre-incubation with compound. Subsequently, each reaction was initiated by the addition of 1 μL 1× assay buffer containing 750 nM biotinylated H4R3 (MeI) peptide. The final reaction in each well of 10 μL consists of 1.0 nM PRMT5-MEP50, 75 nM biotinylated-peptide, and 15 μM SAM. Methylation reactions were allowed to proceed for 150 minutes in a sealed plate at 37° C. Reactions were immediately quenched by the addition of 1 μL of 5% formic acid. A plate was then frozen and shipped to SAMDI™ Tech Inc. to determine the percent conversion from H4R3 (MeI) to H4R3 (Me2). Dose-response curves were generated by plotting percent effect (% product conversion; Y-axis) vs. Log 10 compound concentrations (X-axis). EC50 values were determined by non-linear regression according to models for either sigmoidal (4 parameters) or biphasic (7 parameters) dose-response curves.

PRMT5 = target: T2, PRMT5 (Homo sapiens, UniProt O14744); assay: PRMT5 Cell Target Engagement (TE) Assay; assay type: cell-based; conditions: MCF-7 cells, treated for 3 days, symmetric dimethylation of arginine (SDMA) by high content imaging
T2 construct: seeded with 4000 MCF-7 cells in 30 μl media; endogenous in cells; host or cells: MCF-7 cells
Outline: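 Readout is single-cell nuclear symmetric-dimethylarginine immunofluorescence (Alexa488), normalized to DMSO-treated cells. Compounds were applied to MCF-7 cells for 3 days at 37 °C, top concentration 10000 nM in 1:3 steps over ten points; curves fitted with 4-parameter robust fit.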

[2] = only one EC50 shown: 4 parameters single site sigmoidal model, 60 min pre-incubation with SAM, read-out: Enzyme Methylation Assay Version A (EC50)
[3] = first of two EC50s: 7 parameters biphasic model, read-out: Enzyme Methylation Assay Version A (EC50_1)
[4] = second of two EC50s: 7 parameters biphasic model, read-out: Enzyme Methylation Assay Version A (EC50_2)

T1 sequence (O14744 whole entry): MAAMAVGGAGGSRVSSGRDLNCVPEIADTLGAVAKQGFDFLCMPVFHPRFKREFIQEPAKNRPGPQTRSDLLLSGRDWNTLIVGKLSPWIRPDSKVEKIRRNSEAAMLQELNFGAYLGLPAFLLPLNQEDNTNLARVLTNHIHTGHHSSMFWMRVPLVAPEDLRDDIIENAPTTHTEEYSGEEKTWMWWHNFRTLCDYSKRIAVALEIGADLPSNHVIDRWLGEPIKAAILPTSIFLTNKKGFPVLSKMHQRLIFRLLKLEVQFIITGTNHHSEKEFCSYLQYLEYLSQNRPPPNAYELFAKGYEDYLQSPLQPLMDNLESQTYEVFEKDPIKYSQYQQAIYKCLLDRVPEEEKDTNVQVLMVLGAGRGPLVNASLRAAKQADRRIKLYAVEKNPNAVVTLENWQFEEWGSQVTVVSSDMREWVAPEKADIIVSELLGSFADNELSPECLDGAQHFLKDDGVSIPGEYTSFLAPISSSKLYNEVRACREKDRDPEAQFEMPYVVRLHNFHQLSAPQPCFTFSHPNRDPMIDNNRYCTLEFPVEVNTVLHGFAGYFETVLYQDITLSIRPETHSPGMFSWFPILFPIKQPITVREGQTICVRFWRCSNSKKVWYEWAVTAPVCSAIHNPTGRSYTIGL
T1 sequence (Q9BQA1 whole entry partner): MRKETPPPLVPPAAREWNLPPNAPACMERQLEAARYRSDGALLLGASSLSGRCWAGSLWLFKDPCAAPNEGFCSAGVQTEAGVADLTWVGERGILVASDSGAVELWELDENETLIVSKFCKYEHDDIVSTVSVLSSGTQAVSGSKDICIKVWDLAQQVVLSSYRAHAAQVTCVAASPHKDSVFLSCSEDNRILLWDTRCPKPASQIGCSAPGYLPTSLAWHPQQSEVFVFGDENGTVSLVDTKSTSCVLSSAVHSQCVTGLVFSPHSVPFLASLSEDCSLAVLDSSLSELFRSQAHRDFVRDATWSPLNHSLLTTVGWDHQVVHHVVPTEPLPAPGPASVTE
T2 sequence (O14744 whole entry): as the sequence (O14744 whole entry) above
T2 sequence (Q9BQA1 whole entry partner): as the sequence (Q9BQA1 whole entry partner) above

| SMILES | EC50 [1, 2] [nM] | EC50 (PRMT5) [nM] | EC50 [1, 3] [nM] | EC50 [1, 4] [nM] |
| --- | --- | --- | --- | --- |
| COC(C)c1cc(Br)cn2cc(C(=O)N3CC[C@H](N4CCc5ccccc5C4)[C@@H](O)C3)nc12 (single isomer, unassigned) [Example 68, (6-bromo-8-((R or S)-1-methoxyethyl)imidazo[1,2-a]pyridin-2-yl)((3S,4S)-4-(3,4-dihydroisoquinolin-2(1H)-yl)-3-hydroxypiperidin-1-yl)methanone] | 0.4 | 2.2 |  |  |
| CC1(C)Oc2ccc(C(=O)N3CC[C@H](N4CCc5ccccc5C4)[C@@H](O)C3)cc2NC1=O [Example 101, 6-((3S,4S)-4-(3,4-dihydroisoquinolin-2(1H)-yl)-3-hydroxypiperidine-1-carbonyl)-2,2-dimethyl-2H-benzo[b][1,4]oxazin-3(4H)-one] |  | 16 | 0.9 | 2880 |
| Cc1nc(C)c(-c2cnc3nc(C(=O)N4CC[C@H](N5CCc6ccccc6C5)[C@@H](O)C4)cn3c2)s1 [Example 56, [(3S,4S)-4-(3,4-dihydroisoquinolin-2(1H)-yl)-3-hydroxypiperidin-1-yl][6-(2,4-dimethyl-1,3-thiazol-5-yl)imidazo[1,2-a]pyrimidin-2-yl]methanone] | 0.4 | 1.8 |  |  |
| O=C(c1cn2cc(C(F)(F)F)cc(Cl)c2n1)N1CC[C@H](N2CCc3ccccc3C2)[C@@H](O)C1 [Example 137, [8-chloro-6-(trifluoromethyl)imidazo[1,2-a]pyridin-2-yl][(3S,4S)-4-(3,4-dihydroisoquinolin-2(1H)-yl)-3-hydroxypiperidin-1-yl]methanone] | 1.1 | 9.2 |  |  |
| Cc1nc2nc(C(=O)N3CC[C@H](N4CCc5ccccc5C4)[C@@H](O)C3)cn2cc1Br [Example 67, (6-bromo-7-methylimidazo[1,2-a]pyrimidin-2-yl)((3S,4S)-4-(3,4-dihydroisoquinolin-2(1H)-yl)-3-hydroxypiperidin-1-yl)methanone] |  | 49 | 0.6 | 53 |
| O=C(c1ccnc(OC(F)F)c1)N1CC[C@H](N2CCc3ccccc3C2)[C@@H](O)C1 [Example 53, (2-(difluoromethoxy)pyridin-4-yl)((3S,4S)-4-(3,4-dihydroisoquinolin-2(1H)-yl)-3-hydroxypiperidin-1-yl)methanone] |  | > 10000 | ~28 | > 10000 |
| O=C(c1cn2cc(Br)c(O)nc2n1)N1CC[C@H](N2CCc3ccccc3C2)[C@@H](O)C1 [Example 70, (6-bromo-7-hydroxyimidazo[1,2-a]pyrimidin-2-yl)((3S,4S)-4-(3,4-dihydroisoquinolin-2(1H)-yl)-3-hydroxypiperidin-1-yl)methanone] |  | > 10000 | ~45 | 86100 |
| CC1(C)CC(C2Oc3ccc(C(=O)N4CC[C@H](N5CCc6ccccc6C5)[C@@H](O)C4)cc3NC2=O)CO1 (single isomer, unassigned) [Example 85] | 1.3 | 6.4 |  |  |
| CCOc1nc(Br)cn2cc(C(=O)N3CC[C@H](N4CCc5ccccc5C4)[C@@H](O)C3)nc12 [Example 51, (6-bromo-8-ethoxyimidazo[1,2-a]pyrazin-2-yl)((3S,4S)-4-(3,4-dihydroisoquinolin-2(1H)-yl)-3-hydroxypiperidin-1-yl)methanone] |  | 6.3 | 0.4 | 120 |
| O=C(c1cc(NC2CC3CCC(C2)N3)ncc1F)N1CC[C@H](N2CCc3ccccc3C2)[C@@H](O)C1 (stereo partly drawn) [Example 121, (2-((8-azabicyclo[3.2.1]octan-3-yl)amino)-5-fluoropyridin-4-yl)((3S,4S)-4-(3,4-dihydroisoquinolin-2(1H)-yl)-3-hydroxypiperidin-1-yl)methanone] |  | 1590 | 14 | 2880 |
| O=C(c1cn2cc(Br)ccc2n1)N1CC[C@H](N2CCc3ccccc3C2)[C@@H](O)C1 (single isomer, unassigned) [Example 1] | 1.1 | 9.8 |  |  |
| CO[C@H](C)c1cc(C(C)C)cn2cc(C(=O)N3CC[C@H](N4CCc5ccccc5C4)[C@@H](O)C3)nc12 [Example 58, [(3S,4S)-4-(3,4-dihydroisoquinolin-2(1H)-yl)-3-hydroxypiperidin-1-yl]{8-[(1R)-1-methoxyethyl]-6-(propan-2-yl)imidazo[1,2-a]pyridin-2-yl}methanone] | 0.3 | 0.6 |  |  |

Next, values leading:

| EC50 [1, 2] [nM] | EC50 (PRMT5) [nM] | EC50 [1, 3] [nM] | EC50 [1, 4] [nM] | SMILES |
| --- | --- | --- | --- | --- |
|  | 140 | 0.7 | 3310 | O=C(c1ccc2c(O)c(C3CC3)cnc2c1)N1CC[C@H](N2CCc3ccccc3C2)[C@@H](O)C1 [Example 63, (3-cyclopropyl-4-hydroxyquinolin-7-yl)((3S,4S)-4-(3,4-dihydroisoquinolin-2(1H)-yl)-3-hydroxypiperidin-1-yl)methanone] |
|  | 50 | 3.1 | 9550 | CC(=O)N1CCC(Nc2cc(C(=O)N3CC[C@H](N4CCc5ccccc5C4)[C@@H](O)C3)c(F)cn2)C1 (single isomer, unassigned) [Example 113] |
| 1.4 | 6.4 |  |  | CC1CC1c1cnc2nc(C(=O)N3CCC(N4CCc5ccccc5C4)[C@@H](O)C3)cn2c1 (single isomer, unassigned) [Example 129] |
| 1.7 | 12 |  |  | Cc1cc(Br)cn2cc(C(=O)N3CC[C@H](N4CCc5ccccc5C4)[C@@H](O)C3)nc12 [Example 135, (6-bromo-8-methylimidazo[1,2-a]pyridin-2-yl)[(3S,4S)-4-(3,4-dihydroisoquinolin-2(1H)-yl)-3-hydroxypiperidin-1-yl]methanone] |
|  | 50 | 4.5 | 4420 | CN1CCC(Nc2cc(C(=O)N3CC[C@H](N4CCc5ccccc5C4)[C@@H](O)C3)c(F)cn2)CC1=O (stereo partly drawn) [Example 112, 4-((4-((3S,4S)-4-(3,4-dihydroisoquinolin-2(1H)-yl)-3-hydroxypiperidine-1-carbonyl)-5-fluoropyridin-2-yl)amino)-1-methylpiperidin-2-one] |
| 6.5 | 140 |  |  | O=C(c1cc(NC2CCN3C(=O)CCC3C2)ncc1F)N1CC[C@H](N2CCc3ccccc3C2)[C@@H](O)C1 (single isomer, unassigned) [Example 115] |
|  | 140 | 3.2 | 569 | O=C(c1nn2cc(Br)cnc2c1Cl)N1CC[C@H](N2CCc3ccccc3C2)[C@@H](O)C1 [Example 133, (6-bromo-3-chloropyrazolo[1,5-a]pyrimidin-2-yl)[(3S,4S)-4-(3,4-dihydroisoquinolin-2(1H)-yl)-3-hydroxypiperidin-1-yl]methanone] |
| 0.7 | 21 |  |  | O=C(c1cn2cc(Br)c(C3CC3)nc2n1)N1CC[C@H](N2CCc3ccccc3C2)[C@@H](O)C1 [Example 78, (6-bromo-7-cyclopropylimidazo[1,2-a]pyrimidin-2-yl)[(3S,4S)-4-(3,4-dihydroisoquinolin-2(1H)-yl)-3-hydroxypiperidin-1-yl]methanone] |
| 580 | > 10000 |  |  | O=C(c1ccnc(C(F)F)c1)N1CC[C@H](N2CCc3ccccc3C2)[C@@H](O)C1 [Example 52, (2-(difluoromethyl)pyridin-4-yl)((3S,4S)-4-(3,4-dihydroisoquinolin-2(1H)-yl)-3-hydroxypiperidin-1-yl)methanone] |
| 0.5 | 4.6 |  |  | CC1CC1c1cnc2nc(C(=O)N3CCC(N4CCc5ccccc5C4)[C@@H](O)C3)cn2c1 (single isomer, unassigned) [Example 131] |
|  | 54 | ~3 | 6760 | CC(=O)N1CCC(Nc2nccc(C(=O)N3CC[C@H](N4CCc5ccccc5C4)[C@@H](O)C3)c2F)CC1 [Example 18, 1-(4-((4-((3S,4S)-4-(3,4-dihydroisoquinolin-2(1H)-yl)-3-hydroxypiperidine-l-carbonyl)-3-fluoropyridin-2-yl)amino)piperidin-1-yl)ethan-1-one] |
| 1.8 | 3.3 |  |  | O=C(c1cc(NC2CCN3C(=O)CCC3C2)ncc1F)N1CC[C@H](N2CCc3ccccc3C2)[C@@H](O)C1 (single isomer, unassigned) [Example 117] |
